These are literature values, as cited in PubChem BioAssay AID1259409 (Chemical Carcinogenesis Research Information System (CCRIS), 2018).

SMILES strings stand for the structures.

The test system of the series is rodent chemically induced tumor inhibition, incidence and multiplicity. As to the kind of experiment: CCRIS tumor inhibitor studies. As to conditions: Carcinogen: 7,12-DIMETHYLBENZ[A]ANTHRACENE; 57-97-6; Dose [Inhibitor]: 0; 36 MMOL/KG IN DIET FOR 24 WK BEGINNING 2 WK PRIOR TO CARCINOGEN DOSE (STUDY DURATION: 24 WK); Route [Inhibitor]: ORAL; Species: RAT; Strain/Sex: SPRAGUE-DAWLEY/FEMALE; Target Tissue: Type of Lesion: MAMMARY GLAND: TUMOR; Dose [Carcinogen]: 65 MG/KG BW ONCE; Promoter: NONE USED.

In the case of `CC(C)=CCC/C(C)=C/CO`, the “tumour outcome (control, treated, inhibition, significance)” value is listed as 91%, 81%, 11%, not significant.
